# Tests used:
# [1] = target: GlucDH_E96G_E170K (GlucDH-mut1) (Bacillus subtilis, UniProt P12310, A229V/A236S/E170K/E96G/Q252K); experiment: Residual activity of GlucDH mutant 1 after storage with coenzyme; type: biochemical; settings: 24 weeks at 32° C. and 85% relative air humidity
# Protocol: (§1) carbaNAD (FIG. 1A) or NAD were added to the glucose-specific GlucDH. These formulations were each applied to Pokalon foils (Lonza) and, after drying, stored under warm and humid conditions (32° C., 85% relative air humidity). Subsequently, the reaction kinetics and the function curve were determined at regular intervals. In parallel at each of the measurement times a cNAD/NAD analysis and a determination of the residual activity of the enzyme were carried out.
# (§2) If a mutant is used instead of the wild-type enzyme (from Bacillus subtilis), it is possible to further increase the residual activity of GlucDH. After 24 weeks storage at 32° C. and 85% relative air humidity in the presence of cNAD, the residual activity of a mutant GlucDH_E96G_E170K with the amino acid substitutions glutamic acid→glycine at position 96 and glutamic acid→lysine at position 170 (GlucDH-mut1) of the wild-type enzyme is about 70%, whereas the residual activity of a mutant GlucDH_E170K_K252L with the amino acid substitutions glutamic acid→lysine at position 170 and lysine→leucine at position 252 (GlucDH-mut2) is about 50% (FIG. 8).
# [2] = target: GlucDH_E170K_K252L (GlucDH-mut2) (Bacillus subtilis, UniProt P12310, A229V/A236S/E170K/Q252L); experiment: Residual activity of GlucDH mutant 2 after storage with coenzyme; type: biochemical; settings: 24 weeks at 32° C. and 85% relative air humidity
# Protocol: as §1, §2
# [3] = tested on: diaphorase; experiment: Enzyme activity in test strips stored up to 18 weeks (Table 7); type: biochemical
# Protocol: In order to evaluate the stabilization of glucose dehydrogenase and diaphorase by carbaNAD, a number of test strips were prepared in analogy to Example 5.
# The test strips were stored over a period of 18 weeks at temperatures of 5° C. (KS, refrigerator), 25° C. (RT), 30° C. (GT), 35° C. (DT) and 45° C. (HT), and the enzyme activity in the test strips was determined at the start of storage (0 weeks), after 6 weeks, after 9 weeks, after 12 weeks and after 18 weeks. The results are shown in Table 6 (glucose dehydrogenase) and in Table 7 (diaphorase).
# [4] = target: D-lactate dehydrogenase (Lactobacillus delbrueckii subsp. bulgaricus, UniProt P26297); experiment: DSC of coenzyme binding; settings: 3.8 mM ligand; 0.1M Tris buffer, pH 7.5
# [5] = tested on: L-lactate dehydrogenase (porcine); experiment: DSC of coenzyme binding; settings: 3.8 mM ligand; 0.1 M Tris buffer, pH 8.5
compound,measurement,setting,value
NC(=O)c1ccc[n+]([C@@H]2C[C@H](COP(=O)([O-])OP(=O)(O)OC[C@H]3O[C@@H](n4cnc5c(N)ncnc54)[C@H](O)[C@@H]3O)[C@@H](O)[C@H]2O)c1 [carbaNAD],residual activity of GlucDH-mut1,[1],about 70%
same,residual activity of GlucDH-mut2,[2],about 50%
same,"Enzyme activity, diaphorase",[3]; 0 weeks (start of storage),4.6 U/cm^2
same,"Enzyme activity, diaphorase","[3]; DT (35° C.), 6 weeks",3.4 U/cm^2
same,"Enzyme activity, diaphorase","[3]; DT (35° C.), 9 weeks",4.4 U/cm^2
same,"Enzyme activity, diaphorase","[3]; DT (35° C.), 12 weeks",4.0 U/cm^2
same,"Enzyme activity, diaphorase","[3]; DT (35° C.), 18 weeks",5.3 U/cm^2
same,"Enzyme activity, diaphorase","[3]; GT (30° C.), 12 weeks",4.3 U/cm^2
same,"Enzyme activity, diaphorase","[3]; GT (30° C.), 18 weeks",6.2 U/cm^2
same,"Enzyme activity, diaphorase","[3]; HT (45° C.), 6 weeks",3.9 U/cm^2
same,"Enzyme activity, diaphorase","[3]; HT (45° C.), 9 weeks",3.8 U/cm^2
same,"Enzyme activity, diaphorase","[3]; KS (5° C.), 6 weeks",4.4 U/cm^2
same,"Enzyme activity, diaphorase","[3]; KS (5° C.), 9 weeks",5.2 U/cm^2
same,"Enzyme activity, diaphorase","[3]; KS (5° C.), 12 weeks",4.8 U/cm^2
same,"Enzyme activity, diaphorase","[3]; KS (5° C.), 18 weeks",7.0 U/cm^2
same,"Enzyme activity, diaphorase","[3]; RT (25° C.), 6 weeks",4.5 U/cm^2
same,"Enzyme activity, diaphorase","[3]; RT (25° C.), 9 weeks",5.1 U/cm^2
same,"Enzyme activity, diaphorase","[3]; RT (25° C.), 12 weeks",4.6 U/cm^2
same,"Enzyme activity, diaphorase","[3]; RT (25° C.), 18 weeks",6.7 U/cm^2
same,TM,[4],59.1 °C
same,ΔHcal,[4],19 kcal/mol
same,TM,[5],61.5 °C
same,ΔHcal,[5],82 kcal/mol
